The values below come from patent US20260226056A1, “SUBSTITUTED 1H-PYRAZOLE-4-CARBOXAMIDES AS SARM1 INHIBITORS” (DISARM THERAPEUTICS, INC., priority 2023, published 2026).

For the assay, the target named is T1, hSARM1 (Homo sapiens, UniProt Q6SZW1).
T1 construct: This assay makes use of full length SARM1, which encompasses the ARM, SAM and TIR domains; made in house; host or cells: NRK1-HEK293T cells (transient transfection; cleared lysate used as enzyme)
T1 sequence (Q6SZW1 28-724): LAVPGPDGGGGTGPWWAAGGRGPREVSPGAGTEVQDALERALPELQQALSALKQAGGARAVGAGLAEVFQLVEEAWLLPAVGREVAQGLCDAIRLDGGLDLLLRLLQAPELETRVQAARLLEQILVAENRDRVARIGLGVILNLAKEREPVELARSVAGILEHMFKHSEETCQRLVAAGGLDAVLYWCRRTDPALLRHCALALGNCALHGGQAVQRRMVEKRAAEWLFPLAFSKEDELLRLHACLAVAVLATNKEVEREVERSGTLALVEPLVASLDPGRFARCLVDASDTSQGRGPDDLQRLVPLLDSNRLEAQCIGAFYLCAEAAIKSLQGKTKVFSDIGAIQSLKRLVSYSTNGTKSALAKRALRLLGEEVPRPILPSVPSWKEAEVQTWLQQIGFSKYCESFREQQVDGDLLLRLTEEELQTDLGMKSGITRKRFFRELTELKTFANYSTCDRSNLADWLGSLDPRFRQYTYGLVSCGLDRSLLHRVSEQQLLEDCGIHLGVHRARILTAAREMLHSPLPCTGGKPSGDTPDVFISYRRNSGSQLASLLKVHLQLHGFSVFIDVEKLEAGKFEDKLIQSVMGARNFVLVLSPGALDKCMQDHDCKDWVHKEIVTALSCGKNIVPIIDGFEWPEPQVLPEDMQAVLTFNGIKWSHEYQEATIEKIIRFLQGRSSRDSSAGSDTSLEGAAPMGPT
The assay is described as follows: ARM-SAM-TIR SARM1 IC50 Assay (NADase activity, NAD+ cleavage, RapidFire MS). The class given is biochemical. The note with it: ARM-SAM-TIR lysate 5 μg/mL, 2 hrs. pre-incubation with compound, 5 μM NAD+, 2 hrs. incubation. As for the experimental part:
This describes an assay of ARM-SAM-TIR NADase activity and use of this assay to measure the efficacy of compounds of the present invention to block SARM1 mediated NAD+ cleavage. This assay was optimized in such a way as to characterize the efficacy of the compounds of the present invention to inhibit SARM1 activity and to calculate an IC50 value for each compound. This assay makes use of full length SARM1, which encompasses the ARM, SAM and TIR domains.
NRK1-HEK293T cells were seeded onto 150 cm^2 plates at 20×10^6 cells per plate. The next day, the cells were transfected with 15 μg ARM-SAM-TIR expression plasmid (SEQ ID NO: 1 as disclosed in WO 2019/236879, Pages 77-81; Paragraph) [0310]).
The cultures were supplemented with 1 mM NR at time of transfection to minimize toxicity from ARM-SAM-TIR overexpression. Forty-eight hours after transfection, cells were harvested, pelleted by centrifugation at 1,000 rpm (Sorvall ST 16R centrifuge, Thermo Fisher), and washed once with cold PBS (0.01 M phosphate buffered saline NaCl 0.138 M; KCl 0.0027 M; pH 7.4). The cells were resuspended in PBS with protease inhibitors (Complete™ protease inhibitor cocktail, Roche product #11873580001) and cell lysates were prepared by sonication (Branson Sonifer 450, output=3, 20 episodes of stroke). The lysates were centrifuged (12,000×g for 10 min at 4° C.) to remove cell debris and the supernatants (containing ARM-SAM-TIR protein) were stored at −80° C. for later use in the in vitro ARM-SAM-TIR NADase assay (see below). Protein concentration was determined by the Bicinchoninic (BCA) method and used to normalize lysate concentrations.
The enzymatic assay was performed in a 384-well polypropylene plate in Dulbecco's PBS buffer in a final assay volume of 20 μL. ARM-SAM-TIR lysate with a final concentration of 5 μg/mL was pre-incubated with the respective compound at 1% DMSO final assay concentration over 2 hrs. at room temperature. The reaction was initiated by addition of 5 μM final assay concentration of NAD+ as substrate. After a 2 hrs. ambient temperature incubation, the reaction was terminated with 40 μL of stop solution of 7.5% trichloroacetic acid in acetonitrile. The NAD+ and ADPR concentrations were analyzed by a RapidFire High Throughput Mass Spectrometry System (Agilent Technologies, Santa Clara, CA) using an API4000 triple quadrupole mass spectrometer (AB Sciex Framingham, MA).
Compounds having an activity designated as “A” provided an IC50<50 nM; compounds having an activity designated as “B” provided an IC50 51-100 nM; compounds having an activity designated as “C” provided an IC50 101-500 nM; compounds having an activity designated as “D” provided an IC50 501-1000 nM; compounds having an activity designated as “E” provided an IC50>1000 nM.

As usually defined, the IC50 is the concentration that inhibits the measured activity by half. For the compound `NC(=O)c1c(-c2ccncc2)n[nH]c1NC(=O)CCc1ccc(Cl)c(Cl)c1` [Example 7, 5-(3-(3,4-Dichlorophenyl)propanamido)-3-(pyridin-4-yl)-1H-pyrazole-4-carboxamide], the IC50 lay in the range of 51 to 100 nM.

For `NC(=O)c1c(-c2ccncc2)n[nH]c1NC(=O)CCc1ccc(Cl)s1` [Example 15, 5-(3-(5-Chlorothiophen-2-yl)propanamido)-3-(pyridin-4-y1)-1H-pyrazole-4-carboxamide], the IC50 was 101 to 500 nM.

Regarding `O=C1NCN(C(=O)CCc2cnc(Cl)c(F)c2)c2[nH]nc(-c3ccncc3)c21` [Example 27, 7-(3-(6-Chloro-5-fluoropyridin-3-y1)propanoyl)-3-(pyridin-4-y1)-1,5,6,7-tetrahydro-4H-pyrazolo[3,4-d]pyrimidin-4-one], the IC50 is over 1000 nM.

As to `NC(=O)c1c(-c2ccncc2)n[nH]c1NC(=O)CCc1ccc(C(F)(F)F)cc1` [Example 23, 3-(Pyridin-4-y1)-5-(3-(4-(trifluoromethyl)phenyl)propanamido)-1H-pyrazole-4-carboxamide], the half-inhibitory concentration (IC50) lay within 101 to 500 nM.

On to `O=C1NCN(C(=O)CCc2ccc(Cl)c(F)c2)c2[nH]nc(-c3ccncc3)c21` [Example 26, 7-(3-(4-Chloro-3-fluorophenyl)propanoy1)-3-(pyridin-4-y1)-1,5,6,7-tetrahydro-4H-pyrazolo[3,4-d]pyrimidin-4-one], for which the concentration for half-maximal inhibition (IC50) is 101 to 500 nM.

With `O=C1NCN(C(=O)CCc2ccc(Cl)nc2)c2[nH]nc(-c3ccncc3)c21` [Example 28, 7-(3-(6-Chloropyridin-3-yl)propanoyl)-3-(pyridin-4-yl)-1,5,6,7-tetrahydro-4H-pyrazolo[3,4-d]pyrimidin-4-one], the IC50 is over 1000 nM.

For `NC(=O)c1c(-c2ccncc2)n[nH]c1NC(=O)CCc1cc(F)cc(F)c1` [Example 11, 5-(3-(3,5-Difluorophenyl)propanamido)-3-(pyridin-4-y1)-1H-pyrazole-4-carboxamide-], the IC50 fell in the range of 501 to 1000 nM.

As for `NC(=O)c1c(-c2ccnnc2)n[nH]c1NC(=O)CCc1ccc(F)nc1` [Example 19, 5-(3-(6-Fluoropyridin-3-yl)propanamido)-3-(pyridazin-4-yl)-1H-pyrazole-4-carboxamide], the IC50 was over 1000 nM.

Turning to `O=C(CCc1ccc(Cl)cc1)Nc1[nH]nc2c1c(=O)[nH]c1cnccc12` [Example 3, 3-(4-Chlorophenyl)-N-(4-oxo-4,5-dihydro-2H-pyrazolo[4,3-c][1,7]naphthyridin-3-yl)propanamide], the IC50 is under 50 nM.

In the case of `CNC(=O)c1c(-c2ccncc2)n[nH]c1NC(=O)CCc1ccc(Cl)cc1` [Example 24, 3-(3-(4-chlorophenyl)propanamido)-N-methyl-5-(pyridin-4-yl)-1H-pyrazole-4-carboxamide], the IC50 lay in the range of 101 to 500 nM.

Turning to `NC(=O)c1c(-c2ccncc2)n[nH]c1NC(=O)CCc1ccc(F)cc1` [Example 10, 5-(3-(4-Fluorophenyl)propanamido)-3-(pyridin-4-yl)-1H-pyrazole-4-carboxamide], the IC50 fell in the range of 101 to 500 nM.

With `NC(=O)c1c(-c2ccncc2)n[nH]c1NC(=O)CCc1ccc(F)c(F)c1` [Example 8, 5-(3-(3,4-Difluorophenyl)propanamido)-3-(pyridin-4-y1)-1H-pyrazole-4-carboxamide], the IC50 is 101 to 500 nM.

Consider `O=C(CCc1ccc(Cl)c(F)c1)Nc1[nH]nc2c1c(=O)[nH]c1cnccc12` [Example 4, 3-(4-Chloro-3-fluorophenyl)-N-(4-oxo-4,5-dihydro-2H-pyrazolo[4,3-c][1,7]naphthyridin-3-yl)propanamide], for which the IC50 was under 50 nM.

Take `O=C1NCN(C(=O)CCc2ccc(Cl)cc2)c2[nH]nc(-c3ccncc3)c21` [Example 25, 7-(3-(4-Chlorophenyl)propanoyl)-3-(pyridin-4-yl)-1,5,6,7-tetrahydro-4H-pyrazolo[3,4-d]pyrimidin-4-one]: the concentration for half-maximal inhibition (IC50) is 101 to 500 nM.

Consider `O=C(CCc1cnc(Cl)c(F)c1)Nc1[nH]nc2c1c(=O)[nH]c1cnccc12` [Example 5, 3-(6-Chloro-5-fluoro-3-pyridyl)-N-(4-oxo-2,5-dihydropyrazolo[4,3-c][1,7]naphthyridin-3-y1)propanamide], for which the IC50 is 51 to 100 nM.

As to `NC(=O)c1c(-c2ccncc2)n[nH]c1NC(=O)CCc1cnc(Cl)c(F)c1` [Example 12, 5-(3-(6-Chloro-5-fluoropyridin-3-yl)propanamido)-3-(pyridin-4-yl)-1H-pyrazole-4-carboxamide], the IC50 is 101 to 500 nM.

For the compound `NC(=O)c1c(-c2ccncc2)n[nH]c1NC(=O)CCc1ccc(F)nc1` [Example 22, 5-(3-(6-Fluoropyridin-3-yl)propanamido)-3-(pyridin-4-yl)-1H-pyrazole-4-carboxamide], the half-maximal inhibitory concentration (IC50) was in the range of 501 to 1000 nM.

Turning to `NC(=O)c1c(-c2ccnnc2)n[nH]c1NC(=O)CCc1cnc(Cl)c(F)c1` [Example 20, 5-(3-(6-Chloro-5-fluoropyridin-3-yl)propanamido)-3-(pyridazin-4-y1)-1H-pyrazole-4-carboxamide], the IC50 lay within 101 to 500 nM.

For the compound `NC(=O)c1c(-c2ccnnc2)n[nH]c1NC(=O)CCc1ccc(Cl)c(F)c1` [Example 21, 5-(3-(4-Chloro-3-fluorophenyl)propanamido)-3-(pyridazin-4-yl)-1H-pyrazole-4-carboxamide], the IC50 lay in the range of 51 to 100 nM.

As to `O=C(CCc1ccc(F)c(F)c1)Nc1[nH]nc2c1c(=O)[nH]c1cnccc12` [Example 6, 3-(3,4-Difluorophenyl)-N-(4-oxo-4,5-dihydro-2H-pyrazolo[4,3-c][1,7]naphthyridin-3-yl)propanamide], the IC50 is under 50 nM.

As to `NC(=O)c1c(-c2ccncc2)n[nH]c1NC(=O)CCc1ccc(Cl)c(F)c1` [Example 14, 5-(3-(4-Chloro-3-fluorophenyl)propanamido)-3-(pyridin-4-yl)-1H-pyrazole-4-carboxamide], the half-inhibitory concentration (IC50) is under 50 nM.

Take `Cc1cnncc1-c1n[nH]c(NC(=O)CCc2ccc(Cl)c(F)c2)c1C(N)=O` [Example 17, 5-(3-(4-Chloro-3-fluorophenyl)propanamido)-3-(5-methylpyridazin-4-y1)-1H-pyrazole-4-carboxamide]: the IC50 was in the range of 501 to 1000 nM.

For the compound `NC(=O)c1c(-c2ccncc2)n[nH]c1NC(=O)CCc1ccc(Cl)cc1` [Example 13, 5-(3-(4-Chlorophenyl)propanamido)-3-(pyridin-4-yl)-1H-pyrazole-4-carboxamide], the IC50 is under 50 nM.

Regarding `O=C(CCc1ccc(Cl)nc1)Nc1[nH]nc2c1c(=O)[nH]c1cnccc12` [Example 1, 3-(6-Chloropyridin-3-yl)-N-(4-oxo-4,5-dihydro-2H-pyrazolo[4,3-c][1,7]naphthyridin-3-yl)propanamide], the IC50 was 101 to 500 nM.

For the compound `NC(=O)c1c(-c2ccncc2)n[nH]c1NC(=O)CCc1ccc(Cl)nc1` [Example 9, 5-(3-(6-Chloropyridin-3-yl)propanamido)-3-(pyridin-4-y1)-1H-pyrazole-4-carboxamide], the IC50 was 101 to 500 nM.

`Cc1cnncc1-c1n[nH]c(NC(=O)CCc2ccc(F)nc2)c1C(N)=O` [Example 16, 5-(3-(6-Fluoropyridin-3-yl)propanamido)-3-(5-methylpyridazin-4-yl)-1H-pyrazole-4-carboxamide]: the IC50 is over 1000 nM.
